#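 Five compound concentrations were applied to cells in 96-well plates for 48 hours; endpoints were derived by simple linear interpolation of the resulting dose-response curve. GI50: concentration for 50% inhibition of growth. TGI denotes the concentration required for complete inhibition of growth.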
# Columns and labels:
# Test in all cases: inhibition of tumour cell growth, NCI panel, 48 h
# [1] = system: UACC-62 melanoma
# [2] = system: OVCAR-3 ovarian
# [3] = system: K-562 leukemia
# [4] = system: NCI-H460 lung
# [5] = system: OVCAR-8 ovarian
# [6] = system: ACHN renal
# [7] = system: DU-145 prostate
# [8] = system: TK-10 renal
# [9] = system: MALME-3M melanoma
# [10] = system: MDA-MB-435
# [11] = system: NCI-H522 lung
# [12] = system: M14 melanoma
# [13] = system: HOP-62 NSCLC
# [14] = system: RXF 393 renal
# [15] = system: UO-31 renal
# [16] = system: EKVX NSCLC
# [17] = system: HT29 colon
# [18] = system: SF-539 CNS
# [19] = system: NCI-H226 lung
# [20] = system: HOP-92 NSCLC
# [21] = system: LOX IMVI melanoma
# [22] = system: HS 578T breast
# [23] = system: MOLT-4 leukemia
# [24] = system: CAKI-1 renal
# [25] = system: 786-0 renal
# [26] = system: A549 NSCLC
# [27] = system: A498 renal
# [28] = system: SW-620 colon
# [29] = system: NCI/ADR-RES ovarian
# [30] = system: BT-549 breast
# [31] = system: HL-60(TB) leukemia
# [32] = system: RPMI-8226 leukemia
# [33] = system: SK-MEL-2 melanoma
# [34] = system: SK-OV-3 ovarian
# [35] = system: IGROV1 ovarian
# [36] = system: HCC-2998 colon
# [37] = system: CCRF-CEM leukemia
# [38] = system: T-47D breast
# [39] = system: KM12 colon
# [40] = system: SN12C renal
# [41] = system: SK-MEL-5 melanoma
# [42] = system: SNB-19 CNS
# [43] = system: OVCAR-5 ovarian
# [44] = system: PC-3 prostate
# [45] = system: SK-MEL-28 melanoma
# [46] = system: HCT-15 colon
# [47] = system: MCF7 breast
# [48] = system: U251 CNS
# [49] = system: SR leukemia
# [50] = system: SNB-75 CNS
# [51] = system: HCT-116 colon
# [52] = system: SF-295 CNS
# [53] = system: NCI-H23 lung
# [54] = system: COLO 205 colon
# [55] = system: OVCAR-4 ovarian
# [56] = system: SF-268 CNS
# [57] = system: MDA-MB-231 breast
structure (smiles),measurement,setting,value
Cc1c([C@H](C(Cl)Cl)[C@H](O)[C@H]2C[C@H](C)C(=O)O2)ccc2c1C(=O)[C@H]1[C@H]2C[C@@H](Br)[C@@]23O[C@@H](CO[C@H]2O)CC13C (stereo partly specified),GI50,[1],324 nM
same,TGI,[1],> 50000 nM
same,GI50,[2],181 nM
same,GI50,[3],217 nM
same,TGI,[3],> 50000 nM
same,GI50,[4],187 nM
same,TGI,[4],> 50000 nM
same,GI50,[5],449 nM
same,TGI,[5],> 50000 nM
same,GI50,[6],2260 nM
same,TGI,[6],> 50000 nM
same,GI50,[7],157 nM
same,TGI,[7],2050 nM
same,GI50,[8],1680 nM
same,TGI,[8],> 50000 nM
same,GI50,[9],275 nM
same,TGI,[9],> 50000 nM
same,GI50,[10],136 nM
same,TGI,[10],425 nM
same,GI50,[11],183 nM
same,TGI,[11],1690 nM
same,GI50,[12],207 nM
same,TGI,[12],1180 nM
same,GI50,[13],571 nM
same,TGI,[13],> 50000 nM
same,GI50,[14],467 nM
same,GI50,[15],8890 nM
same,TGI,[15],> 50000 nM
same,GI50,[16],695 nM
same,TGI,[16],> 50000 nM
same,GI50,[17],179 nM
same,TGI,[17],> 50000 nM
same,GI50,[18],304 nM
same,TGI,[18],2790 nM
same,GI50,[19],> 12700 nM
same,TGI,[19],> 50000 nM
same,GI50,[20],636 nM
same,TGI,[20],> 45300 nM
same,GI50,[21],602 nM
same,TGI,[21],> 50000 nM
same,GI50,[22],708 nM
same,TGI,[22],> 39500 nM
same,GI50,[23],1120 nM
same,TGI,[23],> 50000 nM
same,GI50,[24],798 nM
same,TGI,[24],> 29500 nM
same,GI50,[25],481 nM
same,TGI,[25],21900 nM
same,GI50,[26],435 nM
same,TGI,[26],> 50000 nM
same,GI50,[27],304 nM
same,TGI,[27],> 11100 nM
same,GI50,[28],309 nM
same,TGI,[28],> 50000 nM
same,GI50,[29],2170 nM
same,TGI,[29],11000 nM
same,GI50,[30],1010 nM
same,TGI,[30],> 36300 nM
same,GI50,[31],112 nM
same,TGI,[31],> 50000 nM
same,GI50,[32],240 nM
same,TGI,[32],> 50000 nM
same,GI50,[33],403 nM
same,TGI,[33],> 22200 nM
same,GI50,[34],292 nM
same,TGI,[34],4070 nM
same,GI50,[35],845 nM
same,TGI,[35],> 29600 nM
same,GI50,[36],215 nM
same,TGI,[36],1120 nM
same,GI50,[37],330 nM
same,TGI,[37],> 50000 nM
same,GI50,[38],258 nM
same,TGI,[38],> 50000 nM
same,GI50,[39],260 nM
same,TGI,[39],> 16600 nM
same,GI50,[40],881 nM
same,TGI,[40],> 50000 nM
same,GI50,[41],186 nM
same,TGI,[41],3970 nM
same,GI50,[42],380 nM
same,TGI,[42],> 50000 nM
same,GI50,[43],314 nM
same,TGI,[43],> 50000 nM
same,GI50,[44],330 nM
same,TGI,[44],> 50000 nM
same,TGI,[45],> 50000 nM
same,GI50,[46],373 nM
same,TGI,[46],> 50000 nM
same,GI50,[47],172 nM
same,TGI,[47],> 50000 nM
same,GI50,[48],262 nM
same,TGI,[48],> 50000 nM
same,GI50,[49],153 nM
same,TGI,[49],> 50000 nM
same,GI50,[50],454 nM
same,TGI,[50],> 50000 nM
same,GI50,[51],206 nM
same,TGI,[51],5070 nM
same,GI50,[52],220 nM
same,TGI,[52],2530 nM
same,GI50,[53],295 nM
same,TGI,[53],> 15300 nM
same,GI50,[54],213 nM
same,TGI,[54],1090 nM
same,GI50,[55],1370 nM
same,TGI,[55],> 50000 nM
same,GI50,[56],586 nM
same,TGI,[56],> 50000 nM
same,GI50,[57],561 nM
same,TGI,[57],> 15200 nM

# Reference: PubChem BioAssay (NCI)
